SMILES strings stand for the structures. Read-outs that look alike come from different tables or passages of the source.

The text below walks through data of patent US9216999B2, “Substituted pyrrolo[2,3-h][1,6]naphthyridines and compositions thereof as JAK inhibitors” (priority 2011, dated 2015).

Holding throughout (assay type): biochemical
For one assay, the target named is JAK2 (Homo sapiens (Human), UniProt O60674). Nature of the assay: Enzyme assay (Assay Example^a 1), JAK2.
For a further assay, the target named is Tyk2 (Homo sapiens (Human), UniProt P29597). Briefly: Enzyme assay (Assay Example^a 1), Tyk2. The note with it: ATP 100 μM.
Sequence of Tyk2 (P29597 whole entry): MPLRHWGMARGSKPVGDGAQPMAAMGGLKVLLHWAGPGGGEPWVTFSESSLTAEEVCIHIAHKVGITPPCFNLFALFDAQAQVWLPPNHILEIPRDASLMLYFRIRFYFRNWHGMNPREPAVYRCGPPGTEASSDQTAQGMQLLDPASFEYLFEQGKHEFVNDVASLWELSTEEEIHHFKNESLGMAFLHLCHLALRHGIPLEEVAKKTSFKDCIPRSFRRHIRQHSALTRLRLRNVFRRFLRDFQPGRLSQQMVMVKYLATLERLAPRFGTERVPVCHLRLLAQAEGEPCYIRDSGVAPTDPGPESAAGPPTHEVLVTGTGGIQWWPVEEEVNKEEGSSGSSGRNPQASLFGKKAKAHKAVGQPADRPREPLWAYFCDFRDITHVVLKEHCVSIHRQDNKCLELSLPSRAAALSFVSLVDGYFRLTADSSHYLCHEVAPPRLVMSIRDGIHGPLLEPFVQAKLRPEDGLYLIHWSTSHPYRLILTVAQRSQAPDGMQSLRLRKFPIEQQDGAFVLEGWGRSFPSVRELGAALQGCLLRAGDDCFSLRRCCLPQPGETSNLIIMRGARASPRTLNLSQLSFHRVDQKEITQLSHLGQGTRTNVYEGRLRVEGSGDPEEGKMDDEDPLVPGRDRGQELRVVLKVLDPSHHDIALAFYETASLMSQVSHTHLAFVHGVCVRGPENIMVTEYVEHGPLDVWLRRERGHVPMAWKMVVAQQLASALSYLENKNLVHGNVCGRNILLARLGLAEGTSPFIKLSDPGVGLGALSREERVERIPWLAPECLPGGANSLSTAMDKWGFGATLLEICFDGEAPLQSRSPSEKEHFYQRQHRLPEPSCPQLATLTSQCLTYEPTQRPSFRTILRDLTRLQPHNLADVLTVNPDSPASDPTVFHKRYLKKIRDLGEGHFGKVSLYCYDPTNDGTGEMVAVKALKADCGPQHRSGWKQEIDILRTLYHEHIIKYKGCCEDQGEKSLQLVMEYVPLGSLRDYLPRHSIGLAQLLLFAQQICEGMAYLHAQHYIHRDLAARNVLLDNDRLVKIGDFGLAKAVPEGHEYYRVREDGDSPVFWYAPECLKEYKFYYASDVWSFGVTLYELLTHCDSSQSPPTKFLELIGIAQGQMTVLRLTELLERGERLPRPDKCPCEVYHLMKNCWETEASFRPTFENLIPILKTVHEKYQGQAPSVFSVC
The next assay addresses JAK1 (Homo sapiens (Human), UniProt P23458). Briefly: Enzyme assay (Assay Example^a 1), JAK1. The following applies: ATP 100 μM.
The next assay addresses JAK3 (Homo sapiens (Human), UniProt P52333). Nature of the assay: Enzyme assay (Assay Example^a 1), JAK3.

Sequence of JAK3 (P52333 whole entry): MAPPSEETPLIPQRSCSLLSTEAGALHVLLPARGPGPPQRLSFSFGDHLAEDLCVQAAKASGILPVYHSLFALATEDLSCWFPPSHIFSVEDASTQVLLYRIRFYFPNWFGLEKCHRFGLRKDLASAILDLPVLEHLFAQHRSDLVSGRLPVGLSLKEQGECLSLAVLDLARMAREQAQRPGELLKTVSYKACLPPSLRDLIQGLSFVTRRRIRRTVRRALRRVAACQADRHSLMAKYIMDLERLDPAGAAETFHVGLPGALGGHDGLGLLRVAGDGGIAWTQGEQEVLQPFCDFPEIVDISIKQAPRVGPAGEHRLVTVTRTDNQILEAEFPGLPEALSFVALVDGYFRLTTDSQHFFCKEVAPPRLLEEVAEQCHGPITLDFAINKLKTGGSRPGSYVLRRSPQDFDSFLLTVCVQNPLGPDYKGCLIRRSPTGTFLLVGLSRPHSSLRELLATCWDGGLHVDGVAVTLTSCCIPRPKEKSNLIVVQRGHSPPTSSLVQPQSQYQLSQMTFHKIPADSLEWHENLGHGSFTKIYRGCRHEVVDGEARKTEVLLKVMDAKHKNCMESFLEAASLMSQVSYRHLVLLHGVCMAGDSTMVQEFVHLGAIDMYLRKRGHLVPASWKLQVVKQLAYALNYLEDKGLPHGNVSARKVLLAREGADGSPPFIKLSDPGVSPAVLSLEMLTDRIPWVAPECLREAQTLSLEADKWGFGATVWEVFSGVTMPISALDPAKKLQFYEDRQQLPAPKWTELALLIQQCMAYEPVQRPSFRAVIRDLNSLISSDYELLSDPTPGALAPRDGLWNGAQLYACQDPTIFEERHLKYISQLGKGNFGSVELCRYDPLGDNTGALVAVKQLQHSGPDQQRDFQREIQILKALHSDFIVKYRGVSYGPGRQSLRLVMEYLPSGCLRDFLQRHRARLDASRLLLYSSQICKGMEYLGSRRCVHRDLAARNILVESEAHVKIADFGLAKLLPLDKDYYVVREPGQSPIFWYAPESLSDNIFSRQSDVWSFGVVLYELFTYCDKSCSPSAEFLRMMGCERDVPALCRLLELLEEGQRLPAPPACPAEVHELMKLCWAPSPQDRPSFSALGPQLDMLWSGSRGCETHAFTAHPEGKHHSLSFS

One may read the IC50 as the concentration that gives 50% inhibition. High values mean weaker potency in that assay, low ones greater potency in that assay. Regarding `c1cc2c(ncn3nnc(C4CCCNC4)c23)[nH]1` (racemic) [compound 15], the IC50 was 2.5 µM on JAK2 (ATP 100 μM, Table^a 154) and > 1 µM on Tyk2 (Table^a 154).

Take `OC(CN1CCC(c2nnn3cnc4[nH]ccc4c23)CC1)c1ccc(C(F)(F)F)cc1` (racemic) [compound 212, 2-[4-(7H-Pyrrolo[3,2-e][1,2,3]triazolo[1,5-c]pyrimidin-1-yl)piperidin-1-yl]-1-[4-(trifluoromethyl)phenyl]ethanol]: the IC50 at JAK2 (ATP 100 μM, Table^a 154) came out at 0.047 µM; against Tyk2 (Table^a 154), 0.45 µM.

In the case of `FC(F)CN[C@H]1CC[C@H](c2nnn3cnc4[nH]ccc4c23)CC1` [399b, trans-N-(2,2-difluoroethyl)-4-(7H-pyrrolo[3,2-e][1,2,3]triazolo[1,5-c]pyrimidin-1-yl)cyclohexanamine], the IC50 is 0.0075 µM on JAK1, 0.2 µM at Tyk2 and > 1 µM at JAK3 (ATP 100 μM).

Consider `FC(F)(F)C(N[C@H]1CC[C@H](c2nnn3cnc4[nH]ccc4c23)CC1)C(F)(F)F` [400b, trans-N-(1,1,1,3,3,3-hexafluoropropan-2-yl)-4-(7H-pyrrolo[3,2-e][1,2,3]triazolo[1,5-c]pyrimidin-1-yl)cyclohexanamine], for which the IC50 against JAK1 is 0.042 µM; against Tyk2, 0.84 µM; against JAK3 (ATP 100 μM), > 1 µM.

Turning to `Cc1nc(C2CCCCC2)c2c3cc[nH]c3ncn12` [compound 1], the IC50 against JAK1 stood at 0.23 µM; against Tyk2, 0.59 µM; against JAK3, 1.4 µM.

As for `CC1CCN(C(=O)OC(C)(C)C)CC1c1nnn2cnc3[nH]ccc3c12` (centres unmarked) [compound 11], on JAK2 (ATP 100 μM, Table^a 154), 0.34 µM corresponded to half-maximal inhibition (IC50).

With `CC(C)(C)OC(=O)N1CCC(c2nnn3cnc4[nH]ccc4c23)CC1` [compound 24], the IC50 against JAK2 was 0.51 µM.

Consider `c1cc2c(ncn3nnc(C4CCNCC4)c23)[nH]1` [compound 27], for which the IC50 at JAK2 was > 1 µM.

The compound `FC(F)(F)c1ccc(CN2CCC(c3nnn4cnc5[nH]ccc5c34)CC2)cc1` [compound 33] yielded an IC50 against JAK2 of 0.019 µM.

As for `Cc1cc(OC(F)(F)F)ccc1NC1CCC(c2nnn3cnc4[nH]ccc4c23)CC1` (centres unmarked) [compound 133], the half-maximal inhibitory concentration (IC50) at JAK1 (Table^a 154) is 0.12 µM; on Tyk2 (Table^a 154) it was > 1 µM; at JAK3, > 1 µM.

With `COc1ccc(CN2CCC(c3nnn4cnc5[nH]ccc5c34)CC2)cn1` [compound 170, 1-{1-[(6-methoxypyridin-3-yl)methyl]piperidin-4-yl}-7H-pyrrolo[3,2-e][1,2,3]triazolo[1,5-c]pyrimidine], the IC50 on JAK1 (Table^a 154) is 0.021 µM; against Tyk2 (Table^a 154), > 1 µM; at JAK3 (ATP 100 μM, Table^a 154), 0.52 µM.

`FC(F)(F)CNC[C@H]1CC[C@H](c2nnn3cnc4[nH]ccc4c23)CC1` [compound 188, N-{[trans-4-(7H-pyrrolo[3,2-e][1,2,3]triazolo[1,5-c]pyrimidin-1-yl)cyclohexyl]methyl}-2,2,2-trifluoroethanamine]: the IC50 at JAK1 (Table^a 154) was 0.0012 µM; against Tyk2 (Table^a 154), 0.063 µM; against JAK3 (ATP 100 μM, Table^a 154) it was 0.11 µM.

In the case of `CN(C)S(=O)(=O)c1ccc2c(c1)CCN2C[C@H]1CC[C@H](c2nnn3cnc4[nH]ccc4c23)CC1` [compound 190, 1-{[trans-4-(7H-pyrrolo[3,2-e][1,2,3]triazolo[1,5-c]pyrimidin-1-yl)cyclohexyl]methyl}-N,N-dimethylindoline-5-sulfonamide], the IC50 is 0.022 µM on JAK1 (Table^a 154); 0.61 µM at Tyk2 (Table^a 154); > 1 µM against JAK3 (ATP 100 μM, Table^a 154).

On to `N#Cc1cc(CN2CCC(c3nnn4cnc5[nH]ccc5c34)CC2)ccc1F` [compound 223, 5-{[4-(7H-pyrrolo[3,2-e][1,2,3]triazolo[1,5-c]pyrimidin-1-yl)piperidin-1-yl]methyl}-2-fluorobenzonitrile], for which the figures for the IC50 at JAK1, on Tyk2 and against JAK3 (ATP 100 μM) were 0.015 µM, > 1 µM and 0.94 µM, respectively.

Take `N#C/C(=C\N1CCC(c2nnn3cnc4[nH]ccc4c23)CC1)c1ccc(Cl)cc1` [compound 235, (Z)-3-[4-(7H-pyrrolo[3,2-e][1,2,3]triazolo[1,5-c]pyrimidin-1-yl)piperidin-1-yl]-2-(4-chlorophenyl)acrylonitrile]: the IC50 on JAK1 is 0.056 µM; against Tyk2, > 1 µM; against JAK3 (ATP 100 μM), > 1 µM.

Consider `Cc1ccc(CN2CCC(c3nnn4cnc5[nH]ccc5c34)CC2)s1` [compound 236, 1-{1-[(5-methylthiophen-2-yl)methyl]piperidin-4-yl}-7H-pyrrolo[3,2-e][1,2,3]triazolo[1,5-c]pyrimidine], for which the IC50 is 0.0068 µM against JAK1, > 1 µM against Tyk2 and 0.45 µM against JAK3 (ATP 100 μM).

In the case of `NC(=O)c1ccc(CN2CCC(c3nnn4cnc5[nH]ccc5c34)CC2)cc1` [compound 241, 4-{[4-(7H-pyrrolo[3,2-e][1,2,3]triazolo[1,5-c]pyrimidin-1-yl)piperidin-1-yl]methyl}benzamide], the IC50 against JAK1 was 0.046 µM; on Tyk2, > 1 µM; against JAK3 (ATP 100 μM), > 1 µM.

As for `OCCN(Cc1ccccc1)C[C@H]1CC[C@H](c2nnn3cnc4[nH]ccc4c23)CC1` [compound 268, 2-({[trans-4-(7H-pyrrolo[3,2-e][1,2,3]triazolo[1,5-c]pyrimidin-1-yl)cyclohexyl]methyl}(benzyl)amino)ethanol], the half-inhibitory concentration (IC50) is 0.0044 µM at JAK1, 0.12 µM against Tyk2 and 0.72 µM against JAK3 (ATP 100 μM).

Take `CC1(C)CC1NC[C@H]1CC[C@H](c2nnn3cnc4[nH]ccc4c23)CC1` (stereo partly drawn) [compound 290, N-{[trans-4-(7H-pyrrolo[3,2-e][1,2,3]triazolo[1,5-c]pyrimidin-1-yl)cyclohexyl]methyl}-2,2-dimethylcyclopropanamine]: the IC50 worked out at 0.0076 µM against JAK1, 0.27 µM on Tyk2 and 0.5 µM on JAK3 (ATP 100 μM).

Regarding `OC1(CNC[C@H]2CC[C@H](c3nnn4cnc5[nH]ccc5c34)CC2)CCCCC1` [compound 313, 1-[({[trans-4-(7H-pyrrolo[3,2-e][1,2,3]triazolo[1,5-c]pyrimidin-1-yl)cyclohexyl]methyl)amino)methyl]cyclohexanol], the figures for the IC50 against JAK1, against Tyk2 and on JAK3 (ATP 100 μM) were 0.0084 µM, 0.51 µM and > 1 µM, respectively.

As for `Fc1ccc(C2(NC[C@H]3CC[C@H](c4nnn5cnc6[nH]ccc6c45)CC3)COC2)cc1` [compound 322, N-{[trans-4-(7H-pyrrolo[3,2-e][1,2,3]triazolo[1,5-c]pyrimidin-1-yl)cyclohexyl]methyl}-3-(4-fluorophenyl)oxetan-3-amine], the IC50 against JAK1 was 0.0013 µM; on Tyk2, 0.43 µM; against JAK3 (ATP 100 μM) it was 0.2 µM.

In the case of `COCCN(C)C[C@H]1CC[C@H](c2nnn3cnc4[nH]ccc4c23)CC1` [compound 325, N-{[trans-4-(7H-pyrrolo[3,2-e][1,2,3]triazolo[1,5-c]pyrimidin-1-yl)cyclohexyl]methyl}-2-methoxy-N-methylethanamine], the IC50 was 0.011 µM against JAK1, 0.88 µM at Tyk2 and > 1 µM on JAK3 (ATP 100 μM).

Take `FC1(F)CCN(C[C@H]2CC[C@H](c3nnn4cnc5[nH]ccc5c34)CC2)C1` [compound 328, 1-{trans-4-[(3,3-difluoropyrrolidin-1-yl)methyl]cyclohexyl}-7H-pyrrolo[3,2-e][1,2,3]triazolo[1,5-c]pyrimidine]: the IC50 was 0.0073 µM against JAK1, 0.9 µM against Tyk2 and 0.53 µM at JAK3 (ATP 100 μM).

Consider `O=C(NCC(O)(c1ccc(F)cc1)C(F)(F)F)[C@H]1CC[C@H](c2nnn3cnc4[nH]ccc4c23)CC1` (stereo partly drawn) [compound 347, trans-4-(7H-Pyrrolo[3,2-e][1,2,3]triazolo[1,5-c]pyrimidin-1-yl)-N-[3,3,3-trifluoro-2-(4-fluorophenyl)-2-hydroxypropyl]cyclohexanecarboxamide], for which the IC50 on JAK1 was 0.0069 µM; on Tyk2, > 1 µM; at JAK3 (ATP 100 μM), 0.65 µM.

`N#Cc1ccc(CNC(=O)[C@H]2CC[C@H](c3nnn4cnc5[nH]ccc5c34)CC2)cc1` [compound 350, trans-N-(4-cyanobenzyl)-4-(7H-pyrrolo[3,2-e][1,2,3]triazolo[1,5-c]pyrimidin-1-yl)cyclohexanecarboxamide]: the IC50 on JAK1 was 0.008 µM; at Tyk2, 0.54 µM; against JAK3 (ATP 100 μM), > 1 µM.

`O=C(NCC(F)(F)F)[C@H]1CC[C@H](c2nnn3cnc4[nH]ccc4c23)CC1` [compound 354, trans-4-(7H-pyrrolo[3,2-e][1,2,3]triazolo[1,5-c]pyrimidin-1-yl)-N-(2,2,2-trifluoroethyl)cyclohexanecarboxamide]: the IC50 amounted to 0.0018 µM at JAK1, 0.16 µM against Tyk2 and 0.69 µM against JAK3 (ATP 100 μM).

As to `O=S(=O)(C[C@H]1CC[C@H](c2nnn3cnc4[nH]ccc4c23)CC1)c1ccc(F)cc1` [compound 365, 1-(trans-4-{[(4-fluorophenyl)sulfonyl]methyl}cyclohexyl)-7H-pyrrolo[3,2-e][1,2,3]triazolo[1,5-c]pyrimidine], the IC50 stood at 0.0054 µM against JAK1, 0.34 µM at Tyk2 and 0.74 µM against JAK3 (ATP 100 μM).

Turning to `N#Cc1ccc(CCN2CCC(c3nnn4cnc5[nH]ccc5c34)CC2)cc1` [compound 375, 4-{2-[4-(7H-Pyrrolo[3,2-e][1,2,3]triazolo[1,5-c]pyrimidin-1-yl)piperidin-1-yl]ethyl}benzonitrile], the results for the IC50 against JAK1, against Tyk2 and on JAK3 (ATP 100 μM) were 0.047 µM, > 1 µM and > 1 µM, respectively.

In the case of `FC(F)(F)CN(CC1CC1)[C@H]1CC[C@H](c2nnn3cnc4[nH]ccc4c23)CC1` [compound 413, trans-N-(Cyclopropylmethyl)-4-(7H-pyrrolo[3,2-e][1,2,3]triazolo[1,5-c]pyrimidin-1-yl)-N-(2,2,2-trifluoroethyl)cyclohexanamine], the IC50 was 0.02 µM on JAK1, 0.62 µM against Tyk2 and > 1 µM against JAK3 (ATP 100 μM).

Turning to `N#CCC[C@H]1CC[C@H](c2nnn3cnc4[nH]ccc4c23)CC1` [compound 441, 3-[trans-4-(7H-Pyrrolo[3,2-e][1,2,3]triazolo[1,5-c]pyrimidin-1-yl)cyclohexyl]propanenitrile], the IC50 against JAK1 is 0.0016 µM; against Tyk2, 0.024 µM; on JAK3 (ATP 100 μM), 0.12 µM.
